Results published in patent US6693112B2, “Compounds for enhancing chemotherapy” (The Pennsylvania State University, priority 2000, dated 2004).
Values joined by “and” are separate entries in the source; they are usually repeats but may differ in a detail not shown here. Equal values may be shown once. Read-outs that look alike come from different tables or passages of the source.

Legend:
[1] = target: T1, MRP (Homo sapiens, UniProt P33527); assay: Reversal of MRP-mediated MDR: enhancement of vincristine cytotoxicity toward MCF-7/VP cells; type: cell-based; settings: % survival with compound alone / with compound + 1 nM vincristine; for MRP1 antagonism score: >1.0 = chemosensitization
T1 construct: MCF-7/VP cells, a cell line that expresses MRP; endogenous in cells; host or cells: MCF-7/VP cells
T1 sequence (P33527 whole entry): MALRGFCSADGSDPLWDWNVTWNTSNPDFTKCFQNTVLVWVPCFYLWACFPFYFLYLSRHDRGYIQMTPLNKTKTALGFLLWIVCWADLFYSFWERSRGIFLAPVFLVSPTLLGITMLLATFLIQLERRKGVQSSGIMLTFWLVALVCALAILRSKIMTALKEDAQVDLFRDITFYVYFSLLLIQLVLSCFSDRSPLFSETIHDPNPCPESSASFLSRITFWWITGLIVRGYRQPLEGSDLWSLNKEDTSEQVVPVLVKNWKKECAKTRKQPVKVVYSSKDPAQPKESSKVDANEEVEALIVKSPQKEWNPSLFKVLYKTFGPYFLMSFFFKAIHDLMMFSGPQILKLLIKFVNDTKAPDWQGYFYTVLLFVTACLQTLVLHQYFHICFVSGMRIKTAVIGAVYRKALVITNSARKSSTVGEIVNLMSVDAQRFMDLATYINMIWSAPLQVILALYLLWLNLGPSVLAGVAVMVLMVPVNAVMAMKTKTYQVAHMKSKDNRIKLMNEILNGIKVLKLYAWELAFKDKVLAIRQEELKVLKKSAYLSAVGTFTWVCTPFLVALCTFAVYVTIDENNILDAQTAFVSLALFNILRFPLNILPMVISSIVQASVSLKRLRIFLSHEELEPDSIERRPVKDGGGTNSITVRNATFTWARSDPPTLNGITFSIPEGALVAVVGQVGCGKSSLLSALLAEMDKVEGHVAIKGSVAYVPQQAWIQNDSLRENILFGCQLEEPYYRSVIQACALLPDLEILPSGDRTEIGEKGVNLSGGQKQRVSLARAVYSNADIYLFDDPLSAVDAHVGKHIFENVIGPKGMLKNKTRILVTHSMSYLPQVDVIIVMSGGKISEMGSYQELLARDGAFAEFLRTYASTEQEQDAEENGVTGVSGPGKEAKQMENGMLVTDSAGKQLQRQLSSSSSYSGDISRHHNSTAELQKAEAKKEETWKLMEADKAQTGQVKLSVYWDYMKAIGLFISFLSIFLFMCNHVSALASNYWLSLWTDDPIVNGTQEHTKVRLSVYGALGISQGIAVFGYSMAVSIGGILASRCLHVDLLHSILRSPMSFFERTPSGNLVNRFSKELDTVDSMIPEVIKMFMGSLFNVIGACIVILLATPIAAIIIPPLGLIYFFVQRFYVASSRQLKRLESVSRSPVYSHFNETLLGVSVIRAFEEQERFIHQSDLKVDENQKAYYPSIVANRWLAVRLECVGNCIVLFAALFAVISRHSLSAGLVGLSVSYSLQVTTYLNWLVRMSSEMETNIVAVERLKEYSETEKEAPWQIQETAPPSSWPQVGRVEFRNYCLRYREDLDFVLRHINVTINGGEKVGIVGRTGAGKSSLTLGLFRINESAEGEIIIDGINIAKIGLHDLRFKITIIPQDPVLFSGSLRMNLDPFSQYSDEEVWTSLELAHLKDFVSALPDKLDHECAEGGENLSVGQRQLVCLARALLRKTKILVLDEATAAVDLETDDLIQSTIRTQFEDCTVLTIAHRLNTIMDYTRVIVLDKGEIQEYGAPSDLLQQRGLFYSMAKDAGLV
Description: Reversal of MRP-mediated MDR was examined by plating MCF-7/VP cells as described above and exposing the cells to varying concentrations of phenoxymethylquinoxalinone compounds in the absence or presence of 1 nM vincristine for 48 hours. Cell survival was assayed as described above. The percentage of cells that died following treatment was calculated as described above. Inhibition of MRP was manifested as the ability of the compound to enhance the cytotoxicity of vincristine toward MCF-7/VP cells.
Chemosensitization is indicated by a score greater than 1.0.
Chemosensitization is indicated by a score greater than 1.0. […]

[2] = system: MCF-7 cells; assay: Cytotoxicity toward drug-sensitive MCF-7 cells (sulforhodamine B binding assay); type: cell-based, human; settings: for Toxicity: percent of MCF-7 cells killed by 10 μ/ml of the compound
[3] = target: P-gp (Homo sapiens, UniProt P08183); settings: for P-gp antagonism score / Pgp Antagonism: % survival with compound alone / with compound + 50 nM vinblastine; for P-gp antagonism score: >1.0 = chemosensitization; for p-GP/MRP1: ratio of P-gp and MRP1 antagonism scores
Chain of P-gp (P08183 whole entry): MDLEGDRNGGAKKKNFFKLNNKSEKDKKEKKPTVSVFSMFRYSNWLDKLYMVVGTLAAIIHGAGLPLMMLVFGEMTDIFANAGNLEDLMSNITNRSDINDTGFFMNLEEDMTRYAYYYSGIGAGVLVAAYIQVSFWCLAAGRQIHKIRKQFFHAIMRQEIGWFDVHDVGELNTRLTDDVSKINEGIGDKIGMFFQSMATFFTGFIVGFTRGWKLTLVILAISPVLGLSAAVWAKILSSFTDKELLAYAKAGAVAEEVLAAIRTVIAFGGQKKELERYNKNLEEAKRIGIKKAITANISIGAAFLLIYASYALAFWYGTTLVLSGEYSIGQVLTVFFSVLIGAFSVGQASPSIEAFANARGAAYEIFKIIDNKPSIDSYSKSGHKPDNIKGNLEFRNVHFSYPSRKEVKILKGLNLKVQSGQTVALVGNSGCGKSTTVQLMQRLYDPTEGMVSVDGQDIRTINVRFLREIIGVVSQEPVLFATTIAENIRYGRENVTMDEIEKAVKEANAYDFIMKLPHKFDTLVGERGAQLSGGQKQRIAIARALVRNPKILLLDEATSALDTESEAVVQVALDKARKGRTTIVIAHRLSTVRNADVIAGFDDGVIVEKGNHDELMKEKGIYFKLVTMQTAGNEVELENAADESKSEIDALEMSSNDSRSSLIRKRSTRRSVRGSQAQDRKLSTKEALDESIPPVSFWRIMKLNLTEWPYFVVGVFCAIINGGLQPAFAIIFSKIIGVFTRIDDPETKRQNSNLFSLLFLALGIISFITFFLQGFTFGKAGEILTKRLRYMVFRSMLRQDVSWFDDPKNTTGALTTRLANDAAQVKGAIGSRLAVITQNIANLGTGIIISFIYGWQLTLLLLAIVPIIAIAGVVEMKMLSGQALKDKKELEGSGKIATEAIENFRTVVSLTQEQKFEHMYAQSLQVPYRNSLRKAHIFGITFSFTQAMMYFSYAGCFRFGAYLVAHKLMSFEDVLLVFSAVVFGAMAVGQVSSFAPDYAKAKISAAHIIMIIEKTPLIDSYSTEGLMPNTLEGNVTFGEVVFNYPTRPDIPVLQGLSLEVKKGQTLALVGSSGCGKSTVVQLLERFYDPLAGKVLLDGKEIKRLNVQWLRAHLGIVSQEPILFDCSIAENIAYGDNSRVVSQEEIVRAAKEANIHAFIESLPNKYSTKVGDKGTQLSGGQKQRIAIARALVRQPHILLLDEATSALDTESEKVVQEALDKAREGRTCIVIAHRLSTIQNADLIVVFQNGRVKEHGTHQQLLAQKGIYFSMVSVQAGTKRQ
Description: The percentage of cells that died following treatment was calculated as a percent decrease in sulforhodamine B binding as compared with control cultures. […] Inhibition of P-gp was manifested as the ability of the compound to enhance the cytotoxicity of vinblastine toward NCI/ADR cells. To assess the toxicity of the compounds toward drug-sensitive cells, the effects of the compounds on the growth of drug-sensitive MCF-7 cells were determined using the same methods.
The P-gp antagonism score was calculated by dividing the percent survival of NCI/ADR cells treated with the compound alone by the percent survival of NCI/ADR cells treated with the compound in the presence of 50 nM vinblastine. Chemosensitization is indicated by a score of more than 1.0.
The P-gp antagonism score was calculated by dividing the percent survival of NCI/ADR cells treated with […] by the percent survival of NCI/ADR cells treated with the compound in the presence of 50 nM vinblastine.

[4] = MCF-7 cells, 48 hours, concentration required to kill 50% of the cells, * = maximum dose tested (low solubility)
[5] = MCF-7 cells, concentration required to kill 50% of the cells
[6] = concentration of compound at the maximum antagonism

Row | Structure (SMILES) | MRP1 antagonism score [1] | MRP Antagonism [1] | Pgp Antagonism ([3]; NCI/ADR cells) | Toxicity [2] | also measured
1 | Cn1c(=O)c(COc2ccccc2)nc2ccccc21 [Compound 1, 1-Methyl-3-phenoxymethyl-1H-quinoxalin-2-one] | 1.0 | – | – | – | IC50 ([2]; Homo sapiens, MCF7, 48 h): > 94 µM
2 | Cn1c(=O)c(COc2ccc(F)cc2)nc2ccccc21 [Compound 2] | 0.8 | – | – | – | IC50 [2, 4]: 26 µM
3 | Cn1c(=O)c(COc2ccc(C#N)cc2)nc2ccccc21 [Compound 3, 3-(4-Cyano-phenoxymethyl)-1-methyl-1H-quinoxalin-2-one] | 0.8 | – | – | – | IC50 ([2]; Homo sapiens, MCF7, 48 h): > 43 µM
4 | Cn1c(=O)c(COc2c(F)c(F)c(F)c(F)c2F)nc2ccccc21 [Compound 4] | 0.8 | – | – | – | P-gp antagonism score ([3]; NCI/ADR cells): 2.1; p-GP/MRP1 [3]: 2.6; IC50 [2, 4]: > 70 µM
5 | Cn1c(=O)c(COc2ccc(C(=O)c3ccccc3)cc2)nc2ccccc21 [Compound 8, 3-(4-Benzoyl-phenoxymethyl)-1-methyl-1H-quinoxalin-2-one] | 0.9 | – | – | – | IC50 ([2]; Homo sapiens, MCF7, 48 h): > 67 µM
6 | Cc1cc(OCc2nc3ccccc3n(C)c2=O)ccc1[N+](=O)[O-] [Compound 9] | 1.1 | – | – | – | P-gp antagonism score ([3]; NCI/ADR cells): 1.6; p-GP/MRP1 [3]: 1.4; IC50 [2, 4]: > 77 µM
7 | COC(=O)c1ccc(OCc2nc3ccccc3n(C)c2=O)c(OC)c1 [Compound 10, 3-Methoxy-4-(4-methyl-3-oxo-3,4-dihydroquinoxalin-2-yl-methoxy)-benzoyl methyl ester] | 1.1 | – | – | – | P-gp antagonism score ([3]; NCI/ADR cells): 5.6; p-GP/MRP1 [3]: 5.2; IC50 [2, 4]: 71 µM
8 | Cn1c(=O)c(COc2ccccc2C(=O)Nc2ccccc2)nc2ccccc21 [Compound 11, 2-(4-Methyl-3-oxo-3,4-dihydroquinoxalin-2-yl-methoxy)-N-phenylbenzamide] | 1.0 | – | – | – | IC50 ([2]; Homo sapiens, MCF7, 48 h): > 32 µM
9 | CN(C)c1cccc(OCc2nc3ccccc3n(C)c2=O)c1 [Compound 12] | 0.9 | – | – | – | P-gp antagonism score ([3]; NCI/ADR cells): 1.1; p-GP/MRP1 [3]: 1.1; IC50 [2, 4]: 57 µM
10 | CCOC(=O)c1ccc(OCc2nc3ccccc3n(C)c2=O)cc1 [Compound 13, 4-(4-Methyl-3-oxo-3,4-dihydro-quinoxalin-2-ylmethoxy)-benzoyl ethyl ester] | 0.9 | – | – | – | P-gp antagonism score ([3]; NCI/ADR cells): 3.8; p-GP/MRP1 [3]: 4.2; IC50 [2, 4]: > 74 µM
11 | Cn1c(=O)c(COc2cccc(Nc3ccccc3)c2)nc2ccccc21 [Compound 14] | 0.9 | – | – | – | P-gp antagonism score ([3]; NCI/ADR cells): 1.3; p-GP/MRP1 [3]: 1.5; IC50 [2, 4]: 25 µM
12 | Cn1c(=O)c(COc2ccccc2Cc2ccccc2)nc2ccccc21 [Compound 15] | 1.1 | – | – | – | P-gp antagonism score ([3]; NCI/ADR cells): 1.0; p-GP/MRP1 [3]: 0.9; IC50 [2, 4]: 8.1 µM
13 | Cn1c(=O)c(COc2cccnc2)nc2ccccc21 [Compound 16] | 1.1 | – | – | – | P-gp antagonism score ([3]; NCI/ADR cells): 1.0; p-GP/MRP1 [3]: 0.9; IC50 [2, 4]: > 56 µM
14 | Cn1c(=O)c(COc2ccc(-c3ccccc3)cc2)nc2ccccc21 [Compound 17] | 0.7 | – | – | – | IC50 [2, 4]: 30 µM
15 | COc1cc(OC)cc(OCc2nc3ccccc3n(C)c2=O)c1 [Compound 21] | 0.9 | – | – | – | IC50 [2, 4]: 25 µM
16 | COc1ccc(OCc2nc3ccccc3n(C)c2=O)cc1OC [Compound 22] | 0.9 | – | – | – | IC50 [2, 4]: 28 µM
17 | COc1cc(OCc2nc3ccccc3n(C)c2=O)cc(OC)c1OC [Compound 23] | 0.9 | – | – | – | P-gp antagonism score ([3]; NCI/ADR cells): 1.2; p-GP/MRP1 [3]: 1.3; IC50 [2, 4]: 21 µM
18 | CN1CCc2c1nc1cc(Br)ccc1c2N [Compound 36] | – | 1.6 | 1.3 | 99% and 94% | –
19 | CCC(=O)Nc1c2c(nc3ccccc13)N(C)CC2 [Compound 37] | – | 1.0 | 1.6 | – | –
20 | CN1CCc2c1nc1ccccc1c2NC(=O)Cc1ccccc1 [Compound 38] | – | 1.0 | – | – | –
21 | CC(C)NCC(=O)Nc1c2c(nc3ccccc13)N(C)CC2 [Compound 39] | – | 1.4 | 1.8 | 39% | –
22 | CN1CCc2c1nc1ccccc1c2NC(=O)CNC(C)(C)C [Compound 40] | – | 1.2 | 3.2 | 28% | –
23 | CCN(CC)CC(=O)Nc1c2c(nc3ccccc13)N(C)CC2 [Compound 41] | – | 1.2 | 6.0 | 30% | –

Row | Structure (SMILES) | MRP1 antagonism score [1] | MRP Antagonism [1] | Pgp Antagonism ([3]; NCI/ADR cells) | Toxicity [2] | also measured
24 | CN1CCc2c1nc1ccccc1c2NC(=O)CN1CCCCC1 [Compound 42] | – | 1.2 | 4.1 | 51% | –
25 | CCCCN(CCCC)CC(=O)Nc1c2c(nc3ccccc13)N(C)CC2 [Compound 43] | – | 1.3 | 4.2 | 50% | –
26 | CN1CCc2c1nc1ccccc1c2NC(=O)CNCCc1ccc(O)cc1 [Compound 44] | – | 1.4 | 1.7 | 21% | –
27 | CN1CCc2c1nc1ccccc1c2NC(=O)C12CC3CC(CC(C3)C1)C2 [Compound 45] | – | 0.9 | 4.7 | 29% | –
28 | CN1CCc2c1nc1ccccc1c2NC(=O)CCc1cc(C(C)(C)C)c(O)c(C(C)(C)C)c1 [Compound 46] | – | 1.0 | 1.0 | 99% | –
29 | CN1CCc2c1nc1ccccc1c2N=C(c1ccccc1)N1CCCCC1 [Compound 47] | – | 1.0 | 2.4 | 58% | –
30 | Nc1c2c(nc3ccccc13)N(C1CCCCC1)CC2 [Compound 49] | – | 0.6 | 0.8 | 97% | –
31 | Nc1c2c(nc3ccccc13)N(c1ccccc1)CC2 [Compound 51] | – | 1.1 | 2.7 | 52% | –
32 | O=C(Nc1c2c(nc3ccccc13)N(Cc1cccc(Cl)c1)CC2)C12CC3CC(CC(C3)C1)C2 [Compound 52] | – | 1.2 | 1.2 | 33% | –
33 | Nc1c2c(nc3ccccc13)N(Cc1ccccc1)CC2 [Compound 53] | – | 1.0 | 3.1 | 47% | –
34 | CC(C)NCC(=O)Nc1c2c(nc3ccccc13)N(Cc1ccccc1)CC2 [Compound 59] | – | 0.99 | 13.0 | 45% | –
35 | CC(C)(C)NCC(=O)Nc1c2c(nc3ccccc13)N(Cc1ccccc1)CC2 [Compound 60] | – | – | – | 29% | –
36 | CCN(CC)CC(=O)Nc1c2c(nc3ccccc13)N(Cc1ccccc1)CC2 [Compound 61] | – | 0.98 | 14.8 | 14% | –
37 | O=C(CN1CCCCC1)Nc1c2c(nc3ccccc13)N(Cc1ccccc1)CC2 [Compound 62] | – | 1.1 and 1.09 | 17.8 | 0% | –
38 | CN1CCN(CC(=O)Nc2c3c(nc4ccccc24)N(Cc2ccccc2)CC3)CC1 [Compound 63] | – | 1.07 | 7.5 | 21% | –
39 | CC(C)(C)c1cc(CCC(=O)Nc2c3c(nc4ccccc24)N(Cc2ccccc2)CC3)cc(C(C)(C)C)c1O [Compound 64] | – | 1.15 | 13.2 | 50% | –
40 | Nc1c2c(nc3ccccc13)N(Cc1ccccc1)CC2 [Compound 4001] | – | – | – | – | Antagonism at IC20 or less, P-gp [3]: 1.0; Maximum Antagonism [3]: 4.0 (3.1); Maximum Antagonism (conc. μg/ml) [3]: 4.0 (3.1) μg/ml; Toxicity IC50 [2, 5]: 1.7 µg/mL
41 | Fc1cccc(CNc2c3c(nc4ccccc24)N(Cc2ccccc2)CC3)c1 [Compound 4003] | – | – | – | – | Maximum Antagonism (conc. μg/ml) [3, 6]: 25 µg/mL; Toxicity IC50 [2, 5]: >25 µg/mL
42 | COc1cc(CNc2c3c(nc4ccccc24)N(Cc2ccccc2)CC3)cc(OC)c1 [Compound 4005] | – | – | – | – | Maximum Antagonism (conc. μg/ml) [3, 6]: 25 µg/mL; Toxicity IC50 [2, 5]: 20 µg/mL
43 | O=C(CN1CCCCC1)Nc1c2c(nc3ccccc13)N(Cc1ccccc1)CC2 [Compound 4007] | – | – | – | – | potency of P-gp antagonism compared with verapamil ([3]; FIG. 7, NCI/ADR cells, 50 nM vinblastine): somewhat more potent than verapamil; Maximum Antagonism (conc. μg/ml) [3, 6]: 3.1 µg/mL; Toxicity IC50 [2, 5]: 6 µg/mL
44 | O=C(Nc1c2c(nc3ccccc13)N(Cc1ccccc1)CC2)c1c(F)cccc1C(F)(F)F [Compound 4009] | – | – | – | – | Maximum Antagonism (conc. μg/ml) [3, 6]: 3.1 µg/mL; Toxicity IC50 [2, 5]: 6 µg/mL
45 | O=C(Nc1c2c(nc3ccccc13)N(Cc1ccccc1)CC2)c1ccc(F)c(C(F)(F)F)c1 [Compound 4010] | – | – | – | – | Maximum Antagonism (conc. μg/ml) [3, 6]: 3.1 µg/mL; Toxicity IC50 [2, 5]: 9 µg/mL
